Measured values reported in patent US6329390A, “5-Bicycloindole compounds” (NPS Allelix Corp., priority 1998, dated 2001).

Assays:
5-HT1D receptor = molecular target: T1, 5-HT1D receptor (Homo sapiens, UniProt P28221); test: Binding affinity, inhibition of 3H-serotonin binding to membranes of cells expressing the 5-HT1D receptor; settings: for inhibition at 0.1 µM: 100 nM of test compound, 3H-serotonin 1 nM, 60 minute incubation at 22° C., read-out: affinity for the 5-HT1D receptor: amount (in percent) of binding of the radioligand that is inhibited; for binding at the 5-HT1D receptor (in words): at a concentration of 100 nM
T1 construct: expressed in transfected cells
T1 sequence (P28221 whole entry): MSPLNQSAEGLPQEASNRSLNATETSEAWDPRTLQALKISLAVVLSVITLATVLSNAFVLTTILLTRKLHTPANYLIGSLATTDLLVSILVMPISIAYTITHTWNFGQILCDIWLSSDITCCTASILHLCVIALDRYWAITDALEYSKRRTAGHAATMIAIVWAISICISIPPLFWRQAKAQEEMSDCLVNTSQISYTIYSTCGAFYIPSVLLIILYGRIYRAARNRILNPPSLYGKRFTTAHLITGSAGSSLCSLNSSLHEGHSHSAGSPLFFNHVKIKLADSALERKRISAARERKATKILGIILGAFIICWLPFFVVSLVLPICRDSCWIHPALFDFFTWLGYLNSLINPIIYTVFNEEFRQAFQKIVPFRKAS
Experimental: (§1) Selected compounds of the previous examples, as well as reference compounds were evaluated for binding affinity using cell types receptive specifically to 5-HT1D and 5-HT1B ligands. The assay protocol generally entailed the incubation of membranes prepared f cells expressing the 5-HT1D or 5-HT1B subtype of 5-HT receptors with ^3 H serotonin (1 nM for 5-HT1 D and 2.5 nM for 5-HT1B). Specific concentrations of the test compound were incubated with the radioligand and the membrane homogenates prepared from the recombinant cells. After a 60 minute incubation at 22° C., the incubation was terminated by vacuum filtration. The filters were washed with buffer and counted for radioactivity using liquid scintillation spectroscopy. The affinity of the test compound for the 5-HT1D receptor is expressed as the amount (in percent) of binding of the radioligand that is inhibited in the presence of 100 nM of test compound. A greater percent inhibition indicates greater affinity for the 5-HT1D receptor.

5-HT1B receptor = molecular target: T2, 5-HT1B receptor (Homo sapiens, UniProt P28222); test: Binding affinity, inhibition of 3H-serotonin binding to membranes of cells expressing the 5-HT1B receptor; settings: for binding at the 5-HT1B receptor (in words): at a concentration of 100 nM; for inhibition at 0.1 µM: 100 nM of test compound, 3H-serotonin 2.5 nM, 60 minute incubation at 22° C., read-out: affinity for the 5-HT1B receptor (percent inhibition of radioligand binding)
T2 construct: expressed in transfected cells
T2 sequence (P28222 whole entry): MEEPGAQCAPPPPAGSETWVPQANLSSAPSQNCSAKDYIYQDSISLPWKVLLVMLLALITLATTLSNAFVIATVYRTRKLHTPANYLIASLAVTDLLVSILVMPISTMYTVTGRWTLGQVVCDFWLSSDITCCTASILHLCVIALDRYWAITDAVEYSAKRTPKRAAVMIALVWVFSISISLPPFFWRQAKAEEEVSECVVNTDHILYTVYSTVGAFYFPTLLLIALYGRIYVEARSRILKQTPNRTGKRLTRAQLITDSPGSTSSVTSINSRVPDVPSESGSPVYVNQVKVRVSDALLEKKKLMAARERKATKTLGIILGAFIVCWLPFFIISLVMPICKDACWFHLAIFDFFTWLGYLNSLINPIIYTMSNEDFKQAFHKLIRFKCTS
Experimental: as §1

CN(C)CCc1c[nH]c2ccc(C3(O)CCN4CCCC4C3)cc12 (single isomer, unassigned) [Example 6c, 5-[(7-R or S)(8a-R,S)-7-Hydroxyoctahydroindolizin-7-yl]-3-[2-(N,N-dimethylamino)ethyl]indole]
inhibition at 0.1 µM (5-HT1D receptor): > 90%

CN1CCC[C@H]1Cc1c[nH]c2ccc(C3CCN4CCCC4C3)cc12 (single isomer, unassigned) [Example 8a, 5-[(7R or 7S)(8a-R,S)-Octahydroindolizin-7-yl]-3-{[(2S)-N-methylpyrrolidin-2-yl]methyl}-1 H-indole]
binding at the 5-HT1D receptor (in words) (5-HT1D receptor): little, if any, binding
binding at the 5-HT1B receptor (in words) (5-HT1B receptor): little, if any, binding

CN1CCC[C@H]1Cc1c[nH]c2ccc(C3CCN4CCCC4C3)cc12 (single isomer, unassigned) [Example 8b, 5-[(7R or 7S)(8a-R,S)-Octahydroindolizin-7-yl] 3-{[(2S)-N-methylpyrrolidin-2-yl]methyl}-1 H-indole]
binding at the 5-HT1D receptor (in words) (5-HT1D receptor): little, if any, binding
binding at the 5-HT1B receptor (in words) (5-HT1B receptor): little, if any, binding

CN1CCC[C@H]1Cc1c[nH]c2ccc(C3(O)CCN4CCCC4C3)cc12 (stereo partly drawn) [Example 6a, 5-[(7-R,S)(8a-R,S)-7-Hydroxyoctahydroindolizin-7-yI]-3-{[(2S)-N-methylpyrrolidin-2-yl]methyl}-1 H-indole]
binding at the 5-HT1D receptor (in words) (5-HT1D receptor): little, if any, binding
binding at the 5-HT1B receptor (in words) (5-HT1B receptor): little, if any, binding

CN1CCC[C@@H]1Cc1c[nH]c2ccc(C3(O)CCN4CCCC4C3)cc12 (stereo partly drawn) [Example 6b, 5-[(7-R,S)(8a-R,S)-7-Hydroxyoctahydroindolizin-7-yl]-3-{[(2R)-N-methylpyrrolidin-2-yl]methyl}-1H-indole]
inhibition at 0.1 µM (5-HT1B receptor): < 30%

CN1CCC[C@H]1Cc1c[nH]c2ccc(C3=CC4CCCN4CC3)cc12 (stereo partly drawn) [Example 7a, 5-[(8a-R,S)-1,2,3,5,6,8a-Hexahydroindolizin-7-yl]-3-{[(2S)-N-methylpyrrolidin-2-yl]methyl}-1 H-indole]
binding at the 5-HT1D receptor (in words) (5-HT1D receptor): little, if any, binding
binding at the 5-HT1B receptor (in words) (5-HT1B receptor): little, if any, binding

CN1CCC[C@H]1Cc1c[nH]c2ccc(C3=CCN4CCCC4C3)cc12 (stereo partly drawn) [Example 7b, 5-[(8a-R,S)-1,2,3,5,8,8a-Hexahydroindolizin-7-yl]-3-{[(2S)-N-methylpyrrolidin-2-yl]methyl}-1 H-indole]
binding at the 5-HT1D receptor (in words) (5-HT1D receptor): little, if any, binding
binding at the 5-HT1B receptor (in words) (5-HT1B receptor): little, if any, binding

CN1CCC[C@@H]1Cc1c[nH]c2ccc(C3=CCN4CCCC4C3)cc12 (stereo partly drawn) [Example 7d, 5-[(8a-R,S)-1,2,3,5,8,8a-Hexahydroindolizin-7-yl]-3-{[(2R)-N-methylpyrrolidin-2-yl]methyl}-1H-indole]
inhibition at 0.1 µM (5-HT1D receptor): > 90%

CN1CCC[C@@H]1Cc1c[nH]c2ccc(C3CCN4CCCC4C3)cc12 (stereo partly drawn) [Example 8c, 5-[(7-R,S)(8a-R,S)-Octahydroindolizin-7-yl]- -{[(2R)-N-methylpyrrolidin-2-yl]methyl}-1H-indole]
inhibition at 0.1 µM (5-HT1B receptor): < 30%
